Like-named read-outs stand apart in the source and are kept apart here.
Key:
Fasciola hepatica [1] = settings: cited from earlier work; for Efficacy against Fasciola hepatica, first fasciola age span printed for the drug / Efficacy against Fasciola hepatica, second fasciola age span for the drug: sheep, recommended dose rates, span not recoverable from the grid; for Efficacy against Fasciola hepatica, first fasciola age span printed for the drug: first (younger) age span in weeks; for Efficacy against Fasciola hepatica, second fasciola age span for the drug: second (older) age span in weeks
[2] = Studies of aqueous solubility (method reported by Yalkowski); type: physicochemical; settings: determined at 25° C.
Protocol: Sample was stirred at room temperature for 48 hours until reaching equilibrium between the two phases. The tube was then centrifuged at 4500 rpm for minutes at room temperature. […] Its concentration was then determined in a spectrophotometer at 350 nm.

[3] = Stability studies in aqueous solution by UV-HPLC; type: physicochemical; settings: >95% by UV-HPLC determined at room temperature
Protocol: Solutions were kept at room temperature (25° C.) for 26 hours (24 hour for TCBZ), and 5 mL of the samples were later diluted in 10 mL of water and analyzed by UV-HPLC.

[4] = tested on: mature and juvenile fasciola; settings: dose of 15 mg/Kg; previous studies; cited from earlier work
Fasciola hepatica [5] = assay: In-vitro evaluation of fasciolicide efficacy on artificially excysted fasciola; type: cell-based
Protocol: In order to evaluate the anti-fasciola effect of compounds 5 and 6 as mixture of regioisomers, artificially excysted fasciola were used (approximately six hours after excystment), according to the disclosure by Ibarra and Jenkins, (1984). Briefly, recently excysted fasciola are suspended in 90 ml of Roswell Park Memorial Institute (RPMI)-1640® culture media plus 90 ml of bovine serum and 1.5 ml of antibiotics (Penicillin and Streptomycin) at a density of 100 individuals/ml.
5 mg of experimental compound was used and placed in a universal bottle (30 ml capacity), to which 0.1 ml of methanol was added to dissolve the compound. From this point, required dilutions are carried out with distilled water to prepare concentrations of 50 and 10 mg/l.
24-well NUNC® culture dishes were used and 1.6 ml of culture medium (RPMI/bovine serum), 0.2 ml of the compound concentration to be tested and 0.2 ml of RPMI containing 10 fasciola per well are placed into each well. Control wells which contain fasciola without compound are used per each dish, further including a control group with a reference drug (Triclabendazole-Fasinex®-Novartis). Each concentration is carried out three times. Each sample remains under incubation at 37° C. during 4 days under a 5% CO2 atmosphere.
Fasciola under study are examined at 24, 48 and 72 hours post-exposure to compound through an inverted microscope at 40×. Extract activity is measured by comparing survival of treated fasciola with control group fasciola. All procedures are carried out under aseptic conditions in a laminar flow hood.
Efficacy is measured by using the following formula (Abbott, 2004): % Efficacy=[Fasciola in control group−Fasciola in treated group]/[[…]]
The extract is considered to have fasciolicide activity when showing an in vitro efficacy higher than 80%. (Ibarra & Jenkins, 1984; Elango & Rahuman, 2011; Ibarra et al, 2013).

[6] = cited from earlier work
[7] = TCBZ solubility reported in literature; cited from earlier work
[8] = 24 h, read-out: EFFICACY (%) 1st Test, mortality percentage
[9] = 24 h, read-out: EFFICACY (%) 2nd Test, mortality percentage
[10] = 24 h, read-out: EFFICACY (%) 3rd Test, mortality percentage
[11] = 24 h, read-out: EFFICACY (%) Average, mortality percentage
[12] = 48 h, read-out: EFFICACY (%) 1st Test, mortality percentage
[13] = 48 h, read-out: EFFICACY (%) 2nd Test, mortality percentage
[14] = 48 h, read-out: EFFICACY (%) 3rd Test, mortality percentage
[15] = 48 h, read-out: EFFICACY (%) Average, mortality percentage
[16] = 72 h, read-out: EFFICACY (%) 1st Test, mortality percentage
[17] = 72 h, read-out: EFFICACY (%) 2nd Test, mortality percentage
[18] = 72 h, read-out: EFFICACY (%) 3rd Test, mortality percentage
[19] = 72 h, read-out: EFFICACY (%) Average, mortality percentage

Q: Which results are given for `CCCSc1ccc2nc(NC(=O)OC)[nH]c2c1` [Albendazole]?
A: efficacy over Fasciola hepatica (Fasciola hepatica [1]; fasciola age weeks 10-11): 50-70%; efficacy over Fasciola hepatica (Fasciola hepatica [1]; fasciola age weeks 12-14): 80-90%

Q: Which “Aqueous solubility pH 7” value [2] does the source give for `CSc1nc2cc(Oc3cccc4ccccc34)c(Cl)cc2[nH]1` [Alpha compound, 5-Chloro-2-(methylthio)-6-(1-naphthyloxy)-1H-benzimidazole] here?
A: Its value is 2.6×10^−4 mg/mL.

Q: What about the “Aqueous solubility (h) pH 7 [chemical stability]” value [3] of the same compound?
A: The value was greater than 26 h.

Q: What about the “efficacy against mature and juvenile fasciola” value [4] of the same compound?
A: The value was 86.9%.

Q: For `Nc1cc(C(Cl)=C(Cl)Cl)c(S(N)(=O)=O)cc1S(N)(=O)=O` [Closuron], which “Efficacy against Fasciola hepatica, first fasciola age span printed for the drug” value (Fasciola hepatica [1]) is on record?
A: The value was 90-99%.

Q: What does the source list for `CC(=O)Nc1ccc(OCCOCCOc2ccc(NC(C)=O)cc2)cc1` [Diamphenetide]?
A: efficacy in adult fasciola (Fasciola hepatica [1]; 7-week adult fasciola): not being effective; Efficacy against Fasciola hepatica, first fasciola age span printed for the drug (Fasciola hepatica [1]): 91-100%; Efficacy against Fasciola hepatica, second fasciola age span for the drug (Fasciola hepatica [1]): 50-80%

Q: Which “Efficacy against Fasciola hepatica, second fasciola age span for the drug” value (Fasciola hepatica [1]) does the source give for `O=C(Nc1ccc(Oc2ccc(Cl)cc2)c(Cl)c1)c1cc(I)cc(I)c1O` [Rafoxanide] here?
A: Its value is 91-99%.

Q: Which “Aqueous solubility (h) pH 7 [chemical stability]” value [3] does the source give for `CSc1nc2cc(Oc3cccc(Cl)c3Cl)c(Cl)cc2[nH]1` [Triclabendazole] here?
A: The value was greater than 24 h.

Q: What about the mortality at 10 µg/mL (Fasciola hepatica [5]; [8]) of the same compound?
A: The mortality at 10 µg/mL was 100%.

Q: What about the mortality at 50 µg/mL (Fasciola hepatica [5]; [8]) of the same compound?
A: The mortality at 50 µg/mL was 100%.

Q: What about the mortality at 10 µg/mL (Fasciola hepatica [5]; [9]) of the same compound?
A: Its mortality at 10 µg/mL is 100%.

Q: And the mortality at 50 µg/mL (Fasciola hepatica [5]; [9])?
A: Its mortality at 50 µg/mL is 100%.

Q: And the mortality at 10 µg/mL (Fasciola hepatica [5]; [10])?
A: Its mortality at 10 µg/mL is 100%.

Q: And the mortality at 50 µg/mL (Fasciola hepatica [5]; [10])?
A: Its mortality at 50 µg/mL is 100%.

Q: What about the mortality at 10 µg/mL (Fasciola hepatica [5]; [11]) of the same compound?
A: The mortality at 10 µg/mL was 100%.

Q: What about the mortality at 50 µg/mL (Fasciola hepatica [5]; [11]) of the same compound?
A: Its mortality at 50 µg/mL is 100%.

Q: And the mortality at 10 µg/mL (Fasciola hepatica [5]; [12])?
A: The mortality at 10 µg/mL was 100%.

Q: And the mortality at 50 µg/mL (Fasciola hepatica [5]; [12])?
A: The mortality at 50 µg/mL was 100%.

Q: What about the mortality at 10 µg/mL (Fasciola hepatica [5]; [13]) of the same compound?
A: The mortality at 10 µg/mL was 100%.

Q: And the mortality at 50 µg/mL (Fasciola hepatica [5]; [13])?
A: Its mortality at 50 µg/mL is 100%.

Q: What about the mortality at 10 µg/mL (Fasciola hepatica [5]; [14]) of the same compound?
A: Its mortality at 10 µg/mL is 100%.

Q: And the mortality at 50 µg/mL (Fasciola hepatica [5]; [14])?
A: The mortality at 50 µg/mL was 100%.

Q: What about the mortality at 10 µg/mL (Fasciola hepatica [5]; [15]) of the same compound?
A: Its mortality at 10 µg/mL is 100%.

Q: And the mortality at 50 µg/mL (Fasciola hepatica [5]; [15])?
A: Its mortality at 50 µg/mL is 100%.

Q: And the mortality at 10 µg/mL (Fasciola hepatica [5]; [16])?
A: Its mortality at 10 µg/mL is 100%.

Q: And the mortality at 50 µg/mL (Fasciola hepatica [5]; [16])?
A: The mortality at 50 µg/mL was 100%.

Q: What about the mortality at 10 µg/mL (Fasciola hepatica [5]; [17]) of the same compound?
A: Its mortality at 10 µg/mL is 100%.

Q: What about the mortality at 50 µg/mL (Fasciola hepatica [5]; [17]) of the same compound?
A: Its mortality at 50 µg/mL is 100%.

Q: And the mortality at 10 µg/mL (Fasciola hepatica [5]; [18])?
A: Its mortality at 10 µg/mL is 100%.

Q: What about the mortality at 50 µg/mL (Fasciola hepatica [5]; [18]) of the same compound?
A: The mortality at 50 µg/mL was 100%.

Q: What about the mortality at 10 µg/mL (Fasciola hepatica [5]; [19]) of the same compound?
A: The mortality at 10 µg/mL was 100%.

Q: What about the mortality at 50 µg/mL (Fasciola hepatica [5]; [19]) of the same compound?
A: The mortality at 50 µg/mL was 100%.

Q: What about the “Efficacy against Fasciola hepatica, second fasciola age span for the drug” value (Fasciola hepatica [1]) of the same compound?
A: The value was 91-99%.

Q: What about the “absorbed fraction of administered dose” value ([6]; orally administered) of the same compound?
A: The value was 5%.

Q: What about the “plasma levels of triclabendazole as sulfoxide” value ([6]; share of dose) of the same compound?
A: Its value is 5%.

Q: What about the removed in feces ([6]; share of dose) of the same compound?
A: The removed in feces was 92%.

Q: And the removed in milk ([6]; share of dose)?
A: The removed in milk was 1%.

Q: And the removed in urine ([6]; share of dose)?
A: The removed in urine was 2%.

Q: And the “Aqueous solubility pH 7” value [7]?
A: Its value is 2.0 × 10^−4 mg/mL.
